pIC50: −log10 of the molar value. Active and inactive are the calls of the source. The rule behind the calls is not given here.
Key:
[1] = molecular target: T1, Protein cereblon/Wee1-like protein kinase (Homo sapiens) (UniProt P30291+Q96SW2); experiment: PROTAC activity at CRBN/Wee1 in human HeLa S3 cells assessed as induction of Wee1 degradation by measuring reduction in phosphorylation of CDK1 at Tyr15 residue at 1 uM measured after 24 hrs by Western blot analysis relative to control; format: cell-based; design: scale not given: the % may be the effect or the level left
[2] = molecular target: T1, Protein cereblon/Wee1-like protein kinase (Homo sapiens); experiment: PROTAC activity at CRBN/Wee1 in human HeLa S3 cells assessed as induction of Wee1 degradation at 1 uM measured after 24 hrs by Western blot analysis relative to control; format: cell-based
[3] = molecular target: T2, von Hippel-Lindau disease tumor suppressor/Wee1-like protein kinase (Homo sapiens) (UniProt P30291+P40337); experiment: PROTAC activity at VHL/Wee1 in human HeLa S3 cells assessed as induction of Wee1 degradation by measuring reduction in phosphorylation of CDK1 at Tyr15 residue at 1 uM measured after 24 hrs by Western blot analysis relative to control; format: cell-based; design: scale not given: the % may be the effect or the level left
[4] = molecular target: T2, von Hippel-Lindau disease tumor suppressor/Wee1-like protein kinase (Homo sapiens); experiment: PROTAC activity at VHL/Wee1 in human HeLa S3 cells assessed as induction of Wee1 degradation at 1 uM measured after 24 hrs by Western blot analysis relative to control; format: cell-based
[5] = molecular target: T2, von Hippel-Lindau disease tumor suppressor/Wee1-like protein kinase (Homo sapiens); experiment: PROTAC activity at VHL/Wee1 in human HeLa S3 cells assessed as induction of Wee1 degradation by measuring reduction in phosphorylation of CDK1 at Tyr15 residue at higher concentration measured after 4 hrs by Western blot analysis; format: cell-based
[6] = molecular target: T1, Protein cereblon/Wee1-like protein kinase (Homo sapiens); experiment: PROTAC activity at CRBN/Wee1 in human HeLa S3 cells assessed as induction of Wee1 degradation at 30 to 10000 nM measured after 4 hrs by Western blot analysis; format: cell-based; conditions: dose 30-10000 nM
[7] = molecular target: T1, Protein cereblon/Wee1-like protein kinase (Homo sapiens); experiment: PROTAC activity at CRBN/Wee1 in human HeLa S3 cells assessed as induction of Wee1 degradation by measuring reduction in phosphorylation of CDK1 at Tyr15 residue at 100 to 10000 nM measured after 4 hrs by Western blot analysis; format: cell-based; conditions: dose 100-10000 nM
[8] = tested on: BT-549; experiment: Antiproliferative activity against human BT-549 cells assessed as inhibition of cell growth measured after 72 hrs by MTS assay; format: functional, cell-based; conditions: BT-549, 72 h
[9] = tested on: PC-3; experiment: Antiproliferative activity against human PC-3 cells assessed as inhibition of cell growth measured after 72 hrs by MTS assay; format: functional, cell-based; conditions: PC-3, 72 h
[10] = tested on: LNCaP; experiment: Antiproliferative activity against human LNCaP cells assessed as inhibition of cell growth measured after 72 hrs by MTS assay; format: functional, cell-based
[11] = tested on: MCF7; experiment: Antiproliferative activity against human MCF7 cells assessed as inhibition of cell growth measured after 72 hrs by MTS assay; format: functional, cell-based; conditions: MCF7, 72 h
[12] = molecular target: T2, von Hippel-Lindau disease tumor suppressor/Wee1-like protein kinase (Homo sapiens); experiment: PROTAC activity at VHL/Wee1 in human HeLa S3 cells assessed as induction of Wee1 degradation at 1 uM measured after 4 hrs by Western blot analysis; format: cell-based
[13] = molecular target: T1, Protein cereblon/Wee1-like protein kinase (Homo sapiens); experiment: PROTAC activity at CRBN/Wee1 in human HeLa S3 cells assessed as induction of Wee1 degradation by measuring reduction in phosphorylation of CDK1 at Tyr15 at above 1 uM measured after 24 to 48 hrs by Western blot analysis; format: cell-based; conditions: time 24-48 hrs
[14] = molecular target: T2, von Hippel-Lindau disease tumor suppressor/Wee1-like protein kinase (Homo sapiens); experiment: PROTAC activity at VHL/Wee1 in human HeLa S3 cells assessed as induction of Wee1 degradation by measuring reduction in CDK1 phosphorylation at Tyr15 residue at above 1 uM measured after 24 to 48 hrs by Western blot analysis; format: cell-based; conditions: time 24-48 hrs
[15] = molecular target: T2, von Hippel-Lindau disease tumor suppressor/Wee1-like protein kinase (Homo sapiens); experiment: PROTAC activity at VHL/Wee1 in human HeLa S3 cells assessed as induction of Wee1 degradation at 1 uM measured after 24 to 48 hrs by Western blot analysis; format: cell-based; conditions: time 24-48 hrs
[16] = molecular target: T1, Protein cereblon/Wee1-like protein kinase (Homo sapiens); experiment: PROTAC activity at CRBN/Wee1 in human HeLa S3 cells assessed as induction of Wee1 degradation at 1 uM measured after 4 hrs by Western blot analysis; format: cell-based

C=CCn1c(=O)c2cnc(Nc3ccc(N4CCN(CCCC(=O)NCCCCCCCCCCC(=O)NCCNc5cccc6c5C(=O)N(C5CCC(=O)NC5=O)C6=O)CC4)cc3)nc2n1-c1cccc(C(C)(C)O)n1 (configuration not stated)
Activity [1]: 41%
Activity [2]: 41%

C=CCn1c(=O)c2cnc(Nc3ccc(N4CCN(CCCC(=O)NCCCCCCCCCCC(=O)N[C@H](C(=O)N5C[C@H](O)C[C@H]5C(=O)NCc5ccc(-c6scnc6C)cc5)C(C)(C)C)CC4)cc3)nc2n1-c1cccc(C(C)(C)O)n1
Activity [3]: 47%
Activity [4]: 50%
Activity [5]: Active

C=CCn1c(=O)c2cnc(Nc3ccc(N4CCN(CCCC(=O)NCCCC(=O)N[C@H](C(=O)N5C[C@H](O)C[C@H]5C(=O)NCc5ccc(-c6scnc6C)cc5)C(C)(C)C)CC4)cc3)nc2n1-c1cccc(C(C)(C)O)n1
Activity [3]: 55%
Activity [4]: 68%
Activity [5]: Active

C=CCn1c(=O)c2cnc(Nc3ccc(N4CCN(CCCC(=O)NCCOCCNc5cccc6c5C(=O)N(C5CCC(=O)NC5=O)C6=O)CC4)cc3)nc2n1-c1cccc(C(C)(C)O)n1 (configuration not stated)
Activity [6]: Active
Activity [1]: 41%
Activity [2]: 38%
Activity [7]: Active

C=CCn1c(=O)c2cnc(Nc3ccc(N4CCN(CCCC(=O)NCCOCCOCCOCCNc5cccc6c5C(=O)N(C5CCC(=O)NC5=O)C6=O)CC4)cc3)nc2n1-c1cccc(C(C)(C)O)n1 (configuration not stated)
Activity [1]: 66%
Activity [2]: 59%

C=CCn1c(=O)c2cnc(Nc3ccc(N4CCN(CCCC(=O)NCCCCCCCC(=O)N[C@H](C(=O)N5C[C@H](O)C[C@H]5C(=O)NCc5ccc(-c6scnc6C)cc5)C(C)(C)C)CC4)cc3)nc2n1-c1cccc(C(C)(C)O)n1
Activity [3]: 53%
Activity [4]: 68%
Activity [5]: Active

C=CCn1c(=O)c2cnc(Nc3ccc(N4CCN(CCCC(=O)NCCCCCCCC(=O)NCCNc5cccc6c5C(=O)N(C5CCC(=O)NC5=O)C6=O)CC4)cc3)nc2n1-c1cccc(C(C)(C)O)n1 (configuration not stated)
Activity [1]: 88%
Activity [2]: 83%

C=CCn1c(=O)c2cnc(Nc3ccc(N4CCN(CCCC(=O)NCCCCCC(=O)NCCNc5cccc6c5C(=O)N(C5CCC(=O)NC5=O)C6=O)CC4)cc3)nc2n1-c1cccc(C(C)(C)O)n1 (configuration not stated)
Activity [1]: 54%
Activity [2]: 75%

C=CCn1c(=O)c2cnc(Nc3ccc(N4CCN(CCCC(=O)NCCNc5cccc6c5C(=O)N(C5CCC(=O)NC5=O)C6=O)CC4)cc3)nc2n1-c1cccc(C(C)(C)O)n1 (configuration not stated)
Activity [6]: Active
Activity [1]: 38%
Activity [2]: 21%

C=CCn1c(=O)c2cnc(Nc3ccc(N4CCN(CCCC(=O)NCCOCCOCCOCCOCCNc5cccc6c5C(=O)N(C5CCC(=O)NC5=O)C6=O)CC4)cc3)nc2n1-c1cccc(C(C)(C)O)n1 (configuration not stated)
Activity [1]: 65%
Activity [2]: 45%

C=CCn1c(=O)c2cnc(Nc3ccc(N4CCN(C)CC4)cc3)nc2n1-c1cccc(C(C)(C)O)n1 [ADAVOSERTIB]
pIC50 [8]: 6.31
pIC50 [9]: 5.10
pIC50 [10]: 6.30
pIC50 [11]: 5.96

C=CCn1c(=O)c2cnc(Nc3ccc(N4CCN(CCCC(=O)NCCCCCCNc5cccc6c5C(=O)N(C5CCC(=O)NC5=O)C6=O)CC4)cc3)nc2n1-c1cccc(C(C)(C)O)n1 (configuration not stated)
Activity [6]: Active
Activity [1]: 39%
Activity [2]: 23%
Activity [7]: Active

C=CCn1c(=O)c2cnc(Nc3ccc(N4CCN(CCCC(=O)NCCCCCC(=O)N[C@H](C(=O)N5C[C@H](O)C[C@H]5C(=O)NCc5ccc(-c6scnc6C)cc5)C(C)(C)C)CC4)cc3)nc2n1-c1cccc(C(C)(C)O)n1
Activity [3]: 64%
Activity [4]: 71%
Activity [5]: Active

C=CCn1c(=O)c2cnc(Nc3ccc(N4CCN(CCCC(=O)NCCOCCOCCOCCOCCOCCNc5cccc6c5C(=O)N(C5CCC(=O)NC5=O)C6=O)CC4)cc3)nc2n1-c1cccc(C(C)(C)O)n1 (configuration not stated)
Activity [1]: 78%
Activity [2]: 51%

C=CCn1c(=O)c2cnc(Nc3ccc(N4CCN(CCCC(=O)NCCOCCOCCOCCOCCC(=O)N[C@H](C(=O)N5C[C@H](O)C[C@H]5C(=O)NCc5ccc(-c6scnc6C)cc5)C(C)(C)C)CC4)cc3)nc2n1-c1cccc(C(C)(C)O)n1
Activity [3]: 80%
Activity [4]: 108%
Activity [12]: Active

C=CCn1c(=O)c2cnc(Nc3ccc(N4CCN(CCCC(=O)NCCOCCOCCNc5cccc6c5C(=O)N(C5CCC(=O)N(C)C5=O)C6=O)CC4)cc3)nc2n1-c1cccc(C(C)(C)O)n1 (configuration not stated)
Activity [13]: Active
pIC50 [8]: 5.05
pIC50 [9]: < 4.70
pIC50 [10]: 4.96
pIC50 [11]: 4.96

C=CCn1c(=O)c2cnc(Nc3ccc(N4CCN(CCCC(=O)NCCOCCOCCOCC(=O)N[C@H](C(=O)N5C[C@H](O)C[C@H]5C(=O)NCc5ccc(-c6scnc6C)cc5)C(C)(C)C)CC4)cc3)nc2n1-c1cccc(C(C)(C)O)n1
Activity [3]: 72%
Activity [4]: 94%

C=CCn1c(=O)c2cnc(Nc3ccc(N4CCN(CCCC(=O)N[C@H](C(=O)N5C[C@@H](O)C[C@H]5C(=O)NCc5ccc(-c6scnc6C)cc5)C(C)(C)C)CC4)cc3)nc2n1-c1cccc(C(C)(C)O)n1
pIC50 [8]: 5.77
pIC50 [9]: 5.06
pIC50 [10]: 5.46
pIC50 [11]: 5.48
Activity [14]: Active
Activity [15]: Active

C=CCn1c(=O)c2cnc(Nc3ccc(N4CCN(CCCC(=O)NCCOCCOCCOCC(=O)NCCNc5cccc6c5C(=O)N(C5CCC(=O)NC5=O)C6=O)CC4)cc3)nc2n1-c1cccc(C(C)(C)O)n1 (configuration not stated)
Activity [1]: 84%
Activity [2]: 96%

C=CCn1c(=O)c2cnc(Nc3ccc(N4CCN(CCCC(=O)NCCOCCOCC(=O)NCCNc5cccc6c5C(=O)N(C5CCC(=O)NC5=O)C6=O)CC4)cc3)nc2n1-c1cccc(C(C)(C)O)n1 (configuration not stated)
Activity [1]: 80%
Activity [2]: 81%
Activity [16]: Active

C=CCn1c(=O)c2cnc(Nc3ccc(N4CCN(CCCC(=O)NCCCC(=O)NCCNc5cccc6c5C(=O)N(C5CCC(=O)NC5=O)C6=O)CC4)cc3)nc2n1-c1cccc(C(C)(C)O)n1 (configuration not stated)
Activity [1]: 60%
Activity [2]: 47%

Source: ChEMBL document CHEMBL5143606, “Selective Wee1 degradation by PROTAC degraders recruiting VHL and CRBN E3 ubiquitin ligases” (Bioorg Med Chem Lett, 2022)
